Results on eleven compounds are retold here after patent US8859284B2, “Delivery of nanoparticles to neurons” (The United States of America, as represented by the …, priority 2009, dated 2014).

Data set [1] relates to HEK 293T/17 cells. The data set can be described thus: Cellular delivery of QDs, intracellular fate by fluorescence microscopy. As to conditions: for disruption of endosomes: with QD-CPP, 2-3 h, highest concentrations (500 mM sucrose or 500 μM chloroquine); for Quantum Dot Fate: summary of QD delivery strategies, some agents also tested in COS-1. The method, then:
Human embryonic kidney (HEK 293T/17) and African green monkey kidney (COS-1) cell lines (ATCC, Manassas, Va.) were cultured in complete growth medium (Dulbecco's Modified Eagle's Medium (DMEM; purchased from ATCC)) supplemented with 1% (v/v) antibiotic/antimycotic and 10% (v/v) heat inactivated fetal bovine serum (ATCC). Cells were cultured in T-25 flasks and incubated at 37° C. under 5% CO2 atmosphere and a subculture was performed every 3-4 days (see reference 13).
The QD delivery experiments were performed on adherent cells seeded into the wells of Lab-Tek 8-well chambered #1 borosilicate coverglass (Nalge Nunc, Rochester, N.Y.) coated with 2 μg/mL fibronectin. For electroporation and nucleofection, adherent cells were harvested by trypsinization prior to performing QD delivery to cells in suspension. Cells were then seeded to chambered coverglass wells and imaged after cell attachment. The endosomal marker AlexaFluor647-transferrin was included as indicated in the text. For imaging, cells were washed with phosphate buffered saline (PBS, 137 mM NaCl, 10 mM phosphate, 3 mM KCl, pH 7.4), fixed with 3.7% paraformaldehyde in PBS and nuclei were stained with DAPI (Sigma) unless otherwise indicated.
For electroporation, cells were harvested by trypsinization and recovered for 1 hour in complete growth medium, pelleted, and resuspended in PBS. 510 nm DHLA-PEG QDs (0.5 μM final concentration) were mixed with 1×10^4 cells to a final volume of 100 μL in PBS in a 0.2 mm electroporation cuvette. The cuvette was subjected to 100 V for a 20 ms pulse using a GenePulser XCell electroporator (Bio-Rad, Hercules, Calif.). Cells were resuspended in complete growth medium, seeded into fibronectin-coated 8-well chambered coverglass, fixed and imaged after 24 hrs. For nucleofection delivery, 1×10^6 cells were harvested and resuspended in 100 μL of NUCLEOFECTOR reagent (Amaxa, Gaithersburg, Md.). 510 nm DHLA-PEG QDs were included at a final concentration of 0.4 μM. The cell/QD/reagent mixture was pulsed in the NUCLEOFECTOR using a preset protocol adapted for each specific cell line (20, 21). Cells were cultured and imaged as described for electroporation.
The INFLUX cell-loading reagent mediates the intracellular release of materials internalized via pinocytic vesicles by delivering the materials to cells in a hypertonic medium followed by the transfer of the cells to a hypotonic medium to induce vesicle disruption (see reference 22). 510 nm DHLA-PEG QDs were diluted to a final concentration of 300-800 nM in the supplied hypertonic delivery media according to manufacturer's instructions and incubated on the cells for 30 min at 37° C. The hypertonic medium was exchanged for hypotonic medium (serum-free culture medium diluted by 40% with deionized water) and incubated on the cells for 3 min. The cells were then recovered in complete growth medium for 30 min and cultured for various lengths of time prior to washing and fixation for imaging.
520 nm QDs with a 1:1 mixed surface of DHLA:DHLA-PEG were incubated with LIPOFECTAMINE 2000 for 20 min in serum free medium at a ratio of 1 μL LIPOFECTAMINE 2000 per 1.5 pmol QD. The complexes, at a final QD concentration of 75 nM, were incubated with the cells for 4 hours, removed and replaced with complete growth medium. The cells were then cultured for 24-36 h prior to washing and fixation.
PEI was incubated with 520 nm mixed surface DHLA:DHLA-PEG QDs in serum free medium at a ratio of 10 μg PEI per 1 pmol QD for 15 min. […] The complexes were then diluted into serum free media to a final QD concentration of 75-100 nM, incubated with cells for 2 h and removed. Cells were then cultured in complete media for 24-36 h, washed and fixed.
A stock solution of 520 nm DHLA:DHLA-PEG QDs (1 μM in 0.1 M borate buffer, pH 8.9) was diluted to 0.5 μM in HEPES (4-(2-hydroxyethyl)-1-piperazineethanesulfonic acid, pH 8.2).

The target of data set [2] is T1, Palmitoyl Protein Thioesterase 1 (PPT1) (Homo sapiens, UniProt P50897).
T1 sequence (P50897 28-306): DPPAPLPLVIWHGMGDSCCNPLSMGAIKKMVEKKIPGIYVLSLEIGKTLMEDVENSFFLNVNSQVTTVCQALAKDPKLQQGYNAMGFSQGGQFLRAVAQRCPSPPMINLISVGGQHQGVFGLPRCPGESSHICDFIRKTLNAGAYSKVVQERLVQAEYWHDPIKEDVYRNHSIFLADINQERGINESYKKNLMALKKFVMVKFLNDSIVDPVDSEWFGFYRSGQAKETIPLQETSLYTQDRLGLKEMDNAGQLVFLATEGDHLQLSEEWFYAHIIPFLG
As to conditions: competitive inhibitors; acidic environments; cited from earlier work.

In data set [3] the test system is COS-1 and HEK 293T/17 cells. The data set can be described thus: Cellular delivery of QDs, result stated for both cell lines together. As to conditions: for intracellular distribution of QDs: both cell lines; for degree of endocytic uptake: compared with Palm-1, 72 h observation. It is filed as cell-based, African green monkey; Human. The source says: (§1) Merged images were generated using Adobe PhotoShop.

Data set [4] deals with HEK 293T/17 cells.
Experimental: Cellular toxicity was assessed using the CellTiter 96 Cell Proliferation Assay (Promega, Madison Wis.) according to the manufacturer's instructions. This assay is based upon the conversion of a tetrazolium substrate to a formazan product by viable cells at the assay end point (see reference 24). Cells (1×10^4 cells/well) were cultured in 96-well microtiter plates in complete growth medium in the presence of increasing concentrations of QDs, free peptide or polymer, or QDs in complex with peptide or polymer. In each case, the materials were incubated with the cells for the time required for efficient QD uptake. The materials were subsequently replaced with complete growth medium and the cells were cultured for 72 hours.
Another data set relates to COS-1 cells. Put plainly: Cellular uptake and endosomal escape of QD-peptide assemblies, fluorescence microscopy. The format is cell-based, African green monkey. As to conditions: COS1 cells. The method, then: as §1
The peptide assemblies were incubated with COS-1 cells for 1 hr, removed, and the cells were subsequently cultured for 24 hr prior to fixation. An AlexaFluor 647-transferrin (Tf) conjugate was included during the incubation to label the vesicles of the endocytic pathway. Cell nuclei were stained with DAPI.

The next data set has as its system HeLa cells. The data set can be described thus: QD uptake and endosomal escape in HeLa cells. It is filed as cell-based. As to conditions: 163 HeLa cells, Palm-1 conjugated to a QD. The method, then:
The Palm-1 peptide was also tested in HeLa cells, and found to be very effective in promoting endosomal escape.

In data set [5] the test system is HEK 293T/17 cells. Put plainly: FRET monitoring of intracellular stability of polyhistidine-QD association. It is filed as cell-based, Human. As to conditions: over three days, no QDs present. How it is done: as §1
To investigate this issue, QD-peptide conjugates were prepared that engaged in FRET and their intracellular interactions were monitored over time. 510 nm DHLA-capped QDs were first assembled with an average of ˜2 Cy3-labeled His6-peptides and then the CPP was added to form the full conjugate (schematic in FIG. 3A). Due to the peptide's small size and proximity of the Cy3 acceptor to the nanocrystal surface, this valence results in a ca. 40% quenching of the QD PL by FRET. The resulting conjugates were delivered to HEK 293T/17 cells and the cells were cultured for three days. QD-donor and Cy3-acceptor FRET interactions over time within the cells were measured by exciting the QD and collecting side-by-side split fluorescence images using the DualView system and deconvoluting the subsequent intensity data. […] When the Cy3/QD emission ratio (normalized and corrected for direct Cy3-acceptor excitation) was calculated a gradual decrease was observed over time, culminating in a 36% decrease over three days (FIG. 3C). […] When Cy3 was delivered to the endosomes as a Cy3-labeled transferrin conjugate (no QDs present), the fluorescence output of the dye decreased approximately 34% over the same time period, in excellent agreement with the decrease observed in the above QD-CPP-Cy3-labeled peptide constructs (FIG. 3D). […]

For data set [6], the system named is HEK 293T/17 cells. The settings on record: cited from earlier work.

Where two headings read alike, the source gives them in different places. Square brackets hold non-standard residues; d marks the D form. Ends that are not written are not given here. Peptide text beside a SMILES is read from it. * marks the point of attachment. Palmitoyl = CCCCCCCCCCCCCCCC(=O)*; Dap = NC[C@H](N)C(=O)O; Aib = CC(C)(N)C(=O)O

Consider `CCN(CC)CCCC(C)Nc1ccnc2cc(Cl)ccc12` (centres unmarked) [chloroquine], for which, in the data set with HEK 293T/17 cells [1], the Toxicity entry is “significant cellular toxicity and morbidity”; the disruption of endosomes entry is “efficiently disrupted the endosomes”.
Consider GDap(Pal)VKIKK, for which the “inhibition of palmitoyl thioesterase” value in data set [2] is on record as “low micromolar range”.
In the case of WGDapaVKIKKGLPAAGG(H)6 [Palm-3], in data set [3], the “intracellular distribution of QDs” value is “remained completely sequestered within endosomes” and the “degree of endocytic uptake” value is “significant reduction in the degree of endocytic uptake”.
Take AcG(Pal)DapVKIKK: the “inhibition of palmitoyl thioesterase” value in data set [2] is “low micromolar affinity”.
Turning to `OC[C@H]1O[C@@](CO)(O[C@H]2O[C@H](CO)[C@@H](O)[C@H](O)[C@H]2O)[C@@H](O)[C@@H]1O` [sucrose], in the data set on HEK 293T/17 cells [1], the Toxicity entry is “significant cellular toxicity and morbidity”; the disruption of endosomes result is given as “efficiently disrupted the endosomes”.
Regarding `O=C(O)CCCc1ccc2ccc3cccc4ccc1c2c34` [pyrenebutyrate], in the data set with HEK 293T/17 cells [1] (HEK 293T/17, endosomal marker AlexaFluor 647-transferrin), the “intracellular distribution of QDs” value was “no cytosolic dispersal was observed”.
`CC(C)C[C@H](NC(=O)CNC(=O)[C@H](Cc1c[nH]c2ccccc12)NC(=O)[C@H](Cc1c[nH]cn1)NC(=O)[C@H](Cc1c[nH]cn1)NC(=O)[C@H](Cc1c[nH]cn1)NC(=O)[C@H](Cc1c[nH]cn1)NC(=O)[C@H](Cc1c[nH]cn1)NC(=O)[C@@H](N)Cc1c[nH]cn1)C(=O)N[C@@H](C)C(=O)NC(C)(C)C(=O)N[C@@H](CO)C(=O)NCC(=O)N1CCC[C@H]1C(=O)N[C@@H](CCCCN)C(=O)N[C@@H](CCCCN)C(=O)N[C@@H](CCCCN)C(=O)N[C@@H](CCCNC(=N)N)C(=O)N[C@@H](CCCCN)C(=O)N[C@H](C(=O)O)C(C)C` [NLS peptide, reference compound] (H-HHHHHHWGLA[Aib]SGPKKKRKV-OH): the Toxicity entry in the data set with HEK 293T/17 cells [4] is “minimally toxic”.
Turning to WGDapaVKIKK(P)9GG(H)6 [JB577], the “Quantum Dot Fate” value in the data set with HEK 293T/17 cells [1] is on record as “Cytosolic, QDs dispersed”. Further, the “% Escape in cells with uptake” value with COS-1 cells (QD-peptide assemblies) is on record as 77%. Moreover, the “Overall uptake/escape: uptake” value in the data set on COS-1 cells (first word of the cell) is on record as “High”. The “Overall uptake/escape: escape” value in the data set on COS-1 cells (second word of the cell) is reported as “high”. For the same compound, in the data set on HeLa cells, the QD uptake came out at 90%, the “endosomal escape of the cells with uptake” value is on record as 86% and the “endosomal escape of the total” value was determined as 77%. Further, in the data set with HEK 293T/17 cells [4], the Toxicity entry was “minimally toxic”.
As to “WGDapaVKIKKGL(A)4GG(H)6 (WG[Dap](Palmitoyl)VKIKKGLAAAAGGHHHHHH) [Palm-2, No (Pro)9, short linker]”, in data set [3], the “intracellular distribution of QDs” value is “remained completely sequestered within endosomes” and the “degree of endocytic uptake” value is given as “significant reduction in the degree of endocytic uptake”.
Turning to “Cy3-labeled transferrin conjugate: Cy3 delivered to endosomes as labeled transferrin, no QDs”, in the data set on HEK 293T/17 cells [5], the “decrease of fluorescence output of the Cy3 dye” value is listed as “approximately 34%”.
As to R9GGLA(Aib)SGWKH6 [CPP peptide], the “Quantum Dot Fate” value in the data set on HEK 293T/17 cells [1] is “Endosomal, QDs punctate”. For the same compound, in the data set with HEK 293T/17 cells [6], the Toxicity entry was “minimally toxic”.
